Assay [1] has as its system IL-2 secretion by human effector memory T cells (TEM). Briefly: Effector memory T cells IL-2 release assay. The assay is classed as cell-based. As to conditions: human CD4+ effector memory T cells, CD3/CD28 bead stimulation, 24 h, read-out: CD4TC IL2 IC50. Summed up: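 Human CD4+ effector memory T cells from healthy-donor buffy coats were stimulated with anti-CD3/CD28 Dynabeads and exposed to 10 semi-log compound doses (0.1% DMSO) for 24 h at 37 °C. Supernatant IL-2 was measured by HTRF, and IC50 came from a 4-parameter logistic fit to maximal IL-2. Viability was checked by flow cytometry.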

Assay [2] addresses Recombinant human MALT-1 (amino acids 340-824) (Homo sapiens (Human), UniProt Q9UDY8). Briefly: MALT-1 inhibition assay (fluorogenic substrate Ac-LRSR-Rh110-DP). Format: biochemical. As to conditions: recombinant human MALT-1, substrate Ac-LRSR-Rh110-DP. Summed up:
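MALT-1 at 3 nM final was reacted with 10 μM Ac-LRSR-Rh110-DP, with substrate addition starting the reaction. Incubation ran 60 minutes at 25° C in the dark. Percent inhibition from fluorescence across doses was fitted to a 4-parameter logistic to give IC50.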

The pIC50 is the negative decadic logarithm of the IC50, by convention in mol/L.

pIC50: −log10 of the molar value. Read-outs that look alike come from different tables or passages of the source.

Sequence of Recombinant human MALT-1 (amino acids 340-824) (Q9UDY8 340-824): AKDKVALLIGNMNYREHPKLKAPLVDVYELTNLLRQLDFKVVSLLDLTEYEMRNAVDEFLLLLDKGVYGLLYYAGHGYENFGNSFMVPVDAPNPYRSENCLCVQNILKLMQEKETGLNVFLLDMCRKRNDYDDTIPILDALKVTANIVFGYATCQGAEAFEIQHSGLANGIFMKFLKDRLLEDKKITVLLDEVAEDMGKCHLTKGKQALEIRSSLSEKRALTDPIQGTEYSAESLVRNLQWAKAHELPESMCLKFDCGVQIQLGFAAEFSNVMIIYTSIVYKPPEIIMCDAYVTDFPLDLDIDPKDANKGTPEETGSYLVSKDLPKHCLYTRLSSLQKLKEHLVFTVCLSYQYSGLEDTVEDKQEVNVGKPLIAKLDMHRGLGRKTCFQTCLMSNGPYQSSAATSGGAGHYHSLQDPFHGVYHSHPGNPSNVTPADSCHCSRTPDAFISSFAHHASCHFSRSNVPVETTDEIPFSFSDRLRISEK

For `CN(C(=O)[C@H]1C[C@](O)(C(F)(F)F)C1)[C@@H](c1ccc(N2CCCc3c2cnc2cc(Cl)nn32)cc1)C(F)(F)F` [CPD0072441, (1s,3s)-N-[(1S)-1-(4-{4-chloro-2,3,7,10-tetraazatricyclo[7.4.0.0^2,6]trideca-1(9),3,5,7-tetraen-10-yl}phenyl)-2,2,2-trifluoroethyl]-3-hydroxy-N-methyl-3-(trifluoromethyl)cyclobutane-1-carboxamide], the results for the pIC50 in assay [1] (T-cell) and in assay [2] were 6.65 and 6.95, respectively.
With `CN(C(=O)[C@H]1C[C@@](C)(O)C1)[C@@H](c1ccc(N2CCCc3c2cnc2cc(Cl)nn32)cc1)C(F)(F)F` [CPD0072437, (1r,3s)-N-[(1S)-1-(4-{4-chloro-2,3,7,10-tetraazatricyclo[7.4.0.0^2,6]trideca-1(9),3,5,7-tetraen-10-yl}phenyl)-2,2,2-trifluoroethyl]-3-hydroxy-N,3-dimethylcyclobutane-1-carboxamide], the pIC50 was 6.75 in assay [1] (T-cell) and 6.91 in assay [2].
On to `COC(C)c1c(Nc2ccc([C@H](N(C)C(=O)C3CCS(=O)(=O)CC3)C(F)(F)F)cn2)cnc2ccc(Cl)nc12` (stereo in doubt) [CPD0019501, N-[(1S)-1-[6-({6-chloro-4-[(1 rel S)-1-methoxyethyl]-1,5-naphthyridin-3-yl}amino)pyridin-3-yl]-2,2,2-trifluoroethyl]-N-methyl-1,1-dioxo-1λ^6-thiane-4-carboxamide], for which the pIC50 in assay [1] was 6.42; in assay [2], 6.46.
For `CN(C(=O)[C@@H](O)C1CCS(=O)(=O)CC1)[C@@H](c1ccc(N2CCCc3c2cnc2cc(Cl)nn32)cc1)C(F)(F)F` (relative stereo) [CPD0073973, (2rel-S)—N-[(1S)-1-(4-{4-chloro-2,3,7,10-tetraazatricyclo[7.4.0.0^2,6]trideca-1(9),3,5,7-tetraen-10-yl}phenyl)-2,2,2-trifluoroethyl]-2-(1,1-dioxo-1λ^e-thian-4-yl)-2-hydroxy-N-methylacetamide], the negative logarithm of the IC50 (pIC50) is 6.83 in assay [1] (T-cell) and 7.24 in assay [2].
With `CN(C(=O)C[C@H]1CCS(=O)(=O)C1)[C@@H](c1ccc(N2CCCc3c2cnc2cc(Cl)nn32)cc1)C(F)(F)F` (relative stereo) [CPD0072799, N-[(1S)-1-(4-{4-chloro-2,3,7,10-tetraazatricyclo[7.4.0.0^2,6]trideca-1(9),3,5,7-tetraen-10-yl}phenyl)-2,2,2-trifluoroethyl]-2-[(3rel-S)-1,1-dioxo-1λ^6-thiolan-3-yl]-N-methylacetamide], the pIC50 in assay [1] (T-cell) was 6.75; in assay [2], 7.06.
Turning to `CN(C(=O)C1CS(=O)(=O)C1)[C@@H](c1ccc(N2CCCc3c2cnc2cc(Cl)nn32)cc1)C(F)(F)F` [CPD0021575, N-[(1S)-1-(4-{4-chloro-2,3,7,10-tetraazatricyclo[7.4.0.0^2,6]trideca-1(9),3,5,7-tetraen-10-yl}phenyl)-2,2,2-trifluoroethyl]-N-methyl-1,1-dioxo-1λ^6-thietane-3-carboxamide], the pIC50 was 6.89 in assay [1] (T-cell) and 6.91 in assay [2].
In the case of `COC(=O)N(C)[C@@H](c1ccc(N2CCCc3c2cnc2cc(Cl)nn32)cc1)C(F)(F)F` [CPD0021733, Methyl N-[(1S)-1-(4-{4-chloro-2,3,7,10-tetraazatricyclo[7.4.0.0^2,6]trideca-1(9),3,5,7-tetraen-10-yl}phenyl)-2,2,2-trifluoroethyl]-N-methylcarbamate], the negative-log IC50 (pIC50) in assay [1] (T-cell) is 6.39; in assay [2] it was 6.47.
Turning to `CC1CCc2c(cnc3cc(Cl)nn23)N1c1ccc([C@H](N(C)C(=O)C2CCS(=O)(=O)CC2)C(F)(F)F)cc1` (stereo partly drawn) [CPD0072806, N-[(1S)-1-{4-[(11rel-R)-4-chloro-11-methyl-2,3,7,10-tetraazatricyclo[7.4.0.0^2,6]trideca-1(9),3,5,7-tetraen-10-yl]phenyl}-2,2,2-trifluoroethyl]-N-methyl-1,1-dioxo-1λ^6-thiane-4-carboxamide], the pIC50 in assay [1] is 6.69; in assay [2], 7.16.

Values taken from US20250051327A1, “MALT-1 MODULATORS” (EXSCIENTIA AI LIMITED, priority 2020, published 2025).
